US20250032485A1, “APPLICATION OF IMIDAZO [1,2-A] PYRAZINE COMPOUNDS OR THEIR PHARMACEUTICALLY ACCEPTABLE SALTS IN THE PREPARATION OF ANTI-CORONAVIRUS DRUGS” (GUANGZHOU MEDICAL UNIVERSITY, priority 2023, published 2025)

Biological target: PLpro of SARS-CoV-2 (Severe acute respiratory syndrome coronavirus 2, UniProt P0DTD1)
Experiment: Enzyme activity test in vitro: inhibition of PLpro at fixed concentration 50 μM (RLRGG-AMC substrate)
Assay type: biochemical
Conditions: read-out: Inhibition rate at 50 μM (%)

Row | Structure (SMILES) | inhibition at 50 µM
1 | CSc1ccc(-c2nc3cnccn3c2Nc2cccc(C(N)=O)c2)cc1 [P19502, 3-[[2-(4-methyl-sulfanylphenyl)imidazo [1,2-a]pyrazin-3-yl]amino]benzamide] | 39.1%
2 | CSc1ccc(-c2nc3cnccn3c2Nc2cccc(C(=O)NCCN(C)C)c2)cc1 [P22467, N-[2-(dimethylamino)ethyl]-3-[[2-(4-methylsulfanylphenyl)imidazo[1,2-a]pyrazin-3-yl]amino] benzamide] | 29.8%
3 | COc1ccc(-c2nc3cnccn3c2Nc2ccc3c(c2)OCCO3)cc1OC [P24852, N-(2,3-dihydro-1,4-benzodioxin-6-yl)-2-(3,4-dimethoxy-phenyl)imidazo[1,2-a]pyrazin-3-amine] | 24.9%
4 | CSc1ccc(-c2nc3cnccn3c2Nc2ccc(C(=O)NC(C)C)cc2)cc1 [P22462, 4-[[2-(4-methyl-sulfanylphenyl)imidazo [1,2-a]pyrazin-3-yl]amino]-N-propan-2-ylbenzamide] | 40.7%
5 | Cc1ccc(-c2nc3cnccn3c2Nc2ccc(C(=O)NC3CCCCC3)cc2)cc1 [P22434, N-cyclohexyl-4-[[2-(4-methylphenyl)imidazo[1,2-a]pyrazin-3-yl]amino]benzamide] | 41.1%
6 | O=C(NC1CCCCC1)c1cccc(Nc2c(-c3ccc(F)cc3)nc3cnccn23)c1 [P22481, N-cyclohexyl-3-[[2-(4-fluorophenyl)imidazo[1,2-a]pyrazin-3-yl]amino] benzamide] | 11.8%
7 | O=C(c1ccc(Nc2c(-c3ccccc3)nc3cnccn23)cc1)N1CCOCC1 [P22474, morpholin-4-yl-[4-[(2-phenylimidazo [1,2-a]pyrazin-3-yl)amino]phenyl] methanone] | 35.3%
8 | CCOC(=O)c1ccc(Nc2c(-c3cccc(O)c3)nc3cnccn23)cc1 [P22552, ethyl 4-[[2-(3-hydroxy-phenyl)imidazo[1,2-a]pyrazin-3-yl]amino] benzoate] | 19.9%
9 | CCNC(=O)c1cccc(Nc2c(-c3ccc(Cl)cc3)nc3cnccn23)c1 [P22456, 3-[[2-(4-chlorophenyl)imidazo[1,2-a]pyrazin-3-yl]amino]-N-ethylbenzamide] | 30.3%
10 | COC(=O)c1ccc(-c2nc3cnccn3c2NC2CCCC2)cc1 [P37287, methyl 4-[3-(cyclopentyl-amino)imidazo[1,2-a]pyrazin-2-yl] benzoate] | 21%
11 | COC(=O)c1cccc(Nc2c(-c3ccccc3O)nc3cnccn23)c1 [P37347, methyl 3-[[2-(2-hydroxy-phenyl)imidazo[1,2-a]pyrazin-3-yl]amino] benzoate] | 25%
12 | COc1ccc(-c2nc3cnccn3c2Nc2ccc3c(c2)OCO3)cc1OC [P19444, N-(1,3-benzodioxol-5-yl)-2-(3,4-dimethoxy-phenyl)imidazo [1,2-a]pyrazin-3-amine] | 42.2%
13 | O=C(O)c1cccc(Nc2c(-c3ccc(N4CCOCC4)cc3)nc3cnccn23)c1 [P24833, 3-[[2-(4-morpholin-4-ylphenyl)imidazo [1,2-a]pyrazin-3-yl]amino]benzoic acid] | 35.1%
14 | COC(=O)c1cccc(Nc2c(-c3cccc(Br)c3)nc3cnccn23)c1 [P32343, methyl 3-[[2-(3-bromophenyl)imidazo[1,2-a]pyrazin-3-yl]amino] benzoate] | 12.9%
15 | CC(C)NC(=O)c1cccc(Nc2c(-c3ccccc3)nc3cnccn23)c1 [P22476, 3-[(2-phenylimidazo [1,2-a]pyrazin-3-yl)amino]-N-propan-2-ylbenzamide] | 29%
16 | CNC(=O)c1ccc(Nc2c(-c3ccc(OC)c(OC)c3)nc3cnccn23)cc1 [P19464, 4-[[2-(3,4-dimethoxy-phenyl)imidazo[1,2-a]pyrazin-3-yl]amino]-N-methyl-benzamide] | 42.2%
17 | CCc1cccc(C)c1Nc1c(-c2ccc(C(=O)NC)cc2)nc2cnccn12 [P22501, 4-[3-(2-ethyl-6-methyl-anilino)imidazo [1,2-a]pyrazin-2-yl]-N-methyl-benzamide] | 28.7%
18 | O=C(c1ccc(Nc2c(-c3ccccc3)nc3cnccn23)cc1)N1CCCCC1 [P22444, [4-[(2-phenylimidazo [1,2-a]pyrazin-3-yl)amino]phenyl]-piperidin-1-ylmethanone] | 43.9%
19 | O=C(O)c1cccc(Nc2c(-c3cccc(Br)c3)nc3cnccn23)c1 [P19467, 3-[[2-(3-bromophenyl)imidazo[1,2-a]pyrazin-3-yl]amino] benzoic acid] | 27.3%
20 | CN(C)CCNC(=O)c1cccc(Nc2c(-c3ccc(Cl)cc3)nc3cnccn23)c1 [P22457, 3-[[2-(4-chlorophenyl)imidazo[1,2-a]pyrazin-3-yl]amino]-N-[2-(dimethylamino)ethyl]benzamide] | 38.6%
21 | O=C(O)c1cccc(Nc2c(-c3ccccc3O)nc3cnccn23)c1 [P37318, 3-[[2-(2-hydroxy-phenyl)imidazo[1,2-a]pyrazin-3-yl]amino] benzoic acid] | 15.9%
22 | CCOC(=O)c1ccc(Nc2c(-c3cccc(Cl)c3)nc3cnccn23)cc1 [P22522, ethyl 4-[[2-(3-chlorophenyl)imidazo[1,2-a]pyrazin-3-yl]amino] benzoate] | 32.3%

Row | Structure (SMILES) | inhibition at 50 µM
23 | COc1ccc(Nc2c(-c3ccc(OC)c(OC)c3)nc3cnccn23)cc1 [P19493, 2-(3,4-dimethoxy-phenyl)-N-(4-methoxy-phenyl)imidazo[1,2-a]pyrazin-3-amine] | 32.3%
24 | CNC(=O)c1ccc(Nc2c(-c3ccccc3)nc3cnccn23)cc1 [P22451, N-methyl-4-[(2-phenyl-imidazo[1,2-a]pyrazin-3-yl)amino] benzamide] | 34.7%
25 | COc1ccc(-c2nc3cnccn3c2Nc2ccc(C(=O)NC(C)C)cc2)cc1 [P22432, 4-[[2-(4-methoxy-phenyl)imidazo[1,2-a]pyrazin-3-yl]amino]-N-propan-2-ylbenzamide] | 42.2%
26 | O=C(O)c1ccc(Nc2c(-c3cccc(Br)c3)nc3cnccn23)cc1 [P18234, 4-[[2-(3-bromophenyl)imidazo[1,2-a]pyrazin-3-yl]amino] benzoic acid] | 20.5%
27 | CSc1ccc(-c2nc3cnccn3c2Nc2cccc(C(=O)NCC3CCCO3)c2)cc1 (stereo not shown) [P22418, 3-[[2-(4-methyl-sulfanylphenyl)imidazo [1,2-a]pyrazin-3-yl]amino]-N-(oxolan-2-ylmethyl)benzamide] | 34.5%
28 | O=C(NCCN1CCOCC1)c1ccc(Nc2c(-c3ccc(Cl)cc3)nc3cnccn23)cc1 [P22413, 4-[[2-(4-chlorophenyl)imidazo[1,2-a]pyrazin-3-yl]amino]-N-(2-morpholin-4-ylethyl)benzamide] | 36.1%
29 | COC(=O)c1ccc(-c2nc3cnccn3c2Nc2ccc(C(C)C)cc2)cc1 [P37297, methyl 4-[3-(4-propan-2-ylanilino)imidazo[1,2-a]pyrazin-2-yl] benzoate] | 22.3%
30 | COC(=O)c1cccc(Nc2c(-c3cccc(O)c3)nc3cnccn23)c1 [P37288, methyl 3-[[2-(3-hydroxy-phenyl)imidazo[1,2-a]pyrazin-3-yl]amino]benzoate] | 13.2%
31 | CCNC(=O)c1cccc(Nc2c(-c3ccccc3)nc3cnccn23)c1 [P22446, N-ethyl-3-[(2-phenyl-imidazo[1,2-a]pyrazin-3-yl)amino] benzamide] | 44.4%
32 | CCNC(=O)c1cccc(Nc2c(-c3ccc(SC)cc3)nc3cnccn23)c1 [P22466, N-ethyl-3-[[2-(4-methylsulfanylphenyl)imidazo[1,2-a]pyrazin-3-yl]amino] benzamide] | 22.2%
33 | COc1ccc(-c2nc3cnccn3c2Nc2ccc(C(=O)NCCN3CCOCC3)cc2)cc1 [P22403, 4-[[2-(4-methoxy-phenyl)imidazo[1,2-a]pyrazin-3-yl]amino]-N-(2-morpholin-4-ylethyl)benzamide] | 31.7%
34 | CCOC(=O)c1ccc(Nc2c(-c3ccccc3O)nc3cnccn23)cc1 [P22512, ethyl 4-[[2-(2-hydroxy-phenyl)imidazo[1,2-a]pyrazin-3-yl]amino] benzoate] | 26.9%
35 | O=C(NCCN1CCOCC1)c1ccc(Nc2c(-c3ccccc3)nc3cnccn23)cc1 [P22472, N-(2-morpholin-4-ylethyl)-4-[(2-phenyl-imidazo[1,2-a]pyrazin-3-yl)amino] benzamide] | 33%
36 | COC(=O)c1cccc(Nc2c(-c3ccc(SC)cc3)nc3cnccn23)c1 [P19495, methyl 3-[[2-(4-methyl-sulfanylphenyl)imidazo [1,2-a]pyrazin-3-yl]amino]benzoate] | 41.7%
37 | CNC(=O)c1cccc(Nc2c(-c3ccc(SC)cc3)nc3cnccn23)c1 [P22436, N-methyl-3-[[2-(4-methylsulfanylphenyl)imidazo[1,2-a]pyrazin-3-yl]amino] benzamide] | 31.3%
38 | COc1cc(-c2nc3cnccn3c2Nc2cccc(C(=O)O)c2)ccc1O [P19506, 3-[[2-(4-hydroxy-3-methoxyphenyl)imidazo [1,2-a]pyrazin-3-yl]amino]benzoic acid] | 34%
39 | COc1ccc(-c2nc3cnccn3c2Nc2ccc(C(=O)NCC3CCCO3)cc2)cc1 (stereo not shown) [P22473, 4-[[2-(4-methoxy-phenyl)imidazo[1,2-a]pyrazin-3-yl]amino]-N-(oxolan-2-ylmethyl) benzamide] | 36.8%
40 | COc1ccc(-c2nc3cnccn3c2Nc2ccc(Cl)cc2)cc1OC [P19503, N-(4-chlorophenyl)-2-(3,4-dimethoxy-phenyl)imidazo[1,2-a]pyrazin-3-amine] | 43.6%
41 | COC(=O)c1cccc(Nc2c(-c3ccc(O)cc3)nc3cnccn23)c1 [P37327, methyl 3-[[2-(4-hydroxy-phenyl)imidazo[1,2-a]pyrazin-3-yl]amino] benzoate] | 48.5%
42 | CNC(=O)c1ccc(Nc2c(-c3ccc(C)cc3)nc3cnccn23)cc1 [P19482, N-methyl-4-[[2-(4-methylphenyl)imidazo [1,2-a]pyrazin-3-yl]amino]benzamide] | 34.1%
43 | CCOC(=O)c1ccc(Nc2c(-c3ccc(O)cc3)nc3cnccn23)cc1 [P19504, ethyl 4-[[2-(4-hydroxy-phenyl)imidazo[1,2-a]pyrazin-3-yl]amino] benzoate] | 32.6%
